HSF data for 14 compounds are collected here from ChEMBL document CHEMBL1130138, “Design of low molecular weight hematoregulatory agents from the structure-activity relationship of a dimeric pentapeptide” (1997).

Structures are written as SMILES.

One assay has as its system C6. The assay is described as follows: Neutralization of colony - stimulating activity was determined by incubating supernatants from stromal cells stimulated by compound (1000 ng/mL) with an antibody raised against KC[38-72]. Type of assay: functional, Mus musculus.
Conditions: not given
In turn, `NCCCC[C@H](NC(=O)[C@H](CCCC[C@H](NC(=O)[C@H](CC(=O)O)NC(=O)[C@H](CCC(=O)O)NC(=O)[C@@H]1CCC(=O)N1)C(=O)N[C@@H](CCCCN)C(=O)O)NC(=O)[C@H](CC(=O)O)NC(=O)[C@H](CCC(=O)O)NC(=O)[C@@H]1CCC(=O)N1)C(=O)O` [GLASPIMOD] displayed an HSF of 0 units/mL.

Still in this assay, the particulars now being: in the assay text read “100 ng/mL” for “1000 ng/mL”.
The compound `O=C(N[C@@H](CO)C(=O)O)c1nccnc1C(=O)N[C@H](CO)C(=O)O` came in with an HSF of 0 units/mL.
Still for that read-out and setting: the value for `O=C(N[C@H](CO)C(=O)O)c1nccnc1C(=O)N[C@H](CO)C(=O)O` was 0 units/mL.

In a further assay the test system is C6. The assay is described as follows: HSF produced by bone marrow-derived stromal cell lines C6.4 on stimulation with the compound at (1000 ng/mL) was determined in vitro in an GM-CFC assay.
Conditions: not given
Type of assay: functional, Mus musculus.
Turning to `NCCCC[C@H](NC(=O)[C@H](CCCC[C@H](NC(=O)[C@H](CC(=O)O)NC(=O)[C@H](CO)NC(=O)c1nccc2ccccc12)C(=O)N[C@@H](CCCCN)C(=O)O)NC(=O)[C@H](CC(=O)O)NC(=O)[C@H](CO)NC(=O)c1nccc2ccccc12)C(=O)O`, the HSF was found to be 0 units/mL.
Same read-out and setting: the value for `NCCCC[C@H](NC(=O)[C@H](CCCC[C@H](NC(=O)[C@H](CC(=O)O)NC(=O)[C@H](CO)NC(=O)c1ncccc1O)C(=O)N[C@@H](CCCCN)C(=O)O)NC(=O)[C@H](CC(=O)O)NC(=O)[C@H](CO)NC(=O)c1ncccc1O)C(=O)O` was 2.8e+06 units/mL.
Same read-out and setting: with `NCCCC[C@H](NC(=O)[C@H](CCCC[C@H](NC(=O)[C@H](CC(=O)O)NC(=O)[C@H](CO)NC(=O)c1ccc2ccccc2n1)C(=O)N[C@@H](CCCCN)C(=O)O)NC(=O)[C@H](CC(=O)O)NC(=O)[C@H](CO)NC(=O)c1ccc2ccccc2n1)C(=O)O` the figure was 0 units/mL; with `NCCCC[C@H](NC(=O)[C@H](CCCC[C@H](NC(=O)[C@H](CC(=O)O)NC(=O)[C@H](CO)NC(=O)c1cnccn1)C(=O)N[C@@H](CCCCN)C(=O)O)NC(=O)[C@H](CC(=O)O)NC(=O)[C@H](CO)NC(=O)c1cnccn1)C(=O)O`, 120000 units/mL.
Same read-out and setting: with `NCCCC[C@H](NC(=O)[C@H](CCCC[C@H](NC(=O)[C@H](CC(=O)O)NC(=O)[C@H](CO)NC(=O)c1ccc[nH]1)C(=O)N[C@@H](CCCCN)C(=O)O)NC(=O)[C@H](CC(=O)O)NC(=O)[C@H](CO)NC(=O)c1ccc[nH]1)C(=O)O` the figure was 1e+06 units/mL; with `O=C(N[C@@H](CO)C(=O)O)c1ccccc1C(=O)N[C@H](CO)C(=O)O`, 0 units/mL.
Consider `NCCCC[C@H](NC(=O)[C@H](CCCC[C@H](NC(=O)[C@H](CC(=O)O)NC(=O)[C@H](CO)NC(=O)c1cc2ccccc2[nH]1)C(=O)N[C@@H](CCCCN)C(=O)O)NC(=O)[C@H](CC(=O)O)NC(=O)[C@H](CO)NC(=O)c1cc2ccccc2[nH]1)C(=O)O`, for which the HSF came out at 0 units/mL.
Same read-out and setting: with `CC(=O)Nc1cccc(C(=O)N[C@@H](CO)C(=O)N[C@@H](CC(=O)O)C(=O)N[C@@H](CCCC[C@H](NC(=O)[C@H](CC(=O)O)NC(=O)[C@H](CO)NC(=O)c2cccc(NC(C)=O)n2)C(=O)N[C@@H](CCCCN)C(=O)O)C(=O)N[C@@H](CCCCN)C(=O)O)n1` the figure was 2.4e+06 units/mL; with `O=C(N[C@H](CO)C(=O)O)c1cccnc1C(=O)N[C@@H](CO)C(=O)O`, 0 units/mL.
On the same count and under the same terms, the value for `O=C(N[C@@H](CO)C(=O)O)c1cccnc1C(=O)N[C@H](CO)C(=O)O` was 1.2e+06 units/mL; that for `O=C(NC(CO)C(=O)O)c1nccnc1C(=O)N[C@@H](CO)C(=O)O` (single isomer, unassigned) was 0 units/mL.
